This passage reports IC50 and Ki results from patent US20080009623A1, “Pyrimidine compounds” (Eisai R&D Management Co., Ltd., priority 2006, published 2008).

Experiment [1] has as its target T1, Human adenosine A2B receptor (Homo sapiens, UniProt P29275).
T1 construct: expressed in transfected cells; host or cells: CHOK1 cells
T1 sequence (P29275 1-332): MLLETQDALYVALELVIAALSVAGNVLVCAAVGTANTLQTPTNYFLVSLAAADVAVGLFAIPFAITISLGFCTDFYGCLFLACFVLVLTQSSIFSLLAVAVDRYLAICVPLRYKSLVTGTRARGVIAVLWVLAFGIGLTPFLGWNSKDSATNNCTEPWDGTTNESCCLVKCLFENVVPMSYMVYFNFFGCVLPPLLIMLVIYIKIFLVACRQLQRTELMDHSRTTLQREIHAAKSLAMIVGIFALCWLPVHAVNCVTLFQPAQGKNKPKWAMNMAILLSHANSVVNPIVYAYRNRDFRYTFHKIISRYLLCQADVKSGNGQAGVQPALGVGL
Kind of experiment: Inhibition of NECA-stimulated cAMP production in A2B receptor expressed cells. As to conditions: CHOK1 cells over-expressing human A2B; 30 nM NECA; in the presence of Ro-20-1724; cAMP enzyme immunoassay; read-out: 50% inhibitory concentration (IC50) for NECA-stimulated cAMP production. Format: cell-based. As for the experimental part: Human adenosine A2B receptor was over-expressed in CHOK1 cells. The cells were uniformly placed on a 24-well plate at the rate of 1.5×10^5 cells/well, incubated for one night and then used for the experiments. The inhibition rate of the compound of the present invention for the amount of cAMP produced by stimulation of 30 nM of 5′-N-ethylcarboxyamideadenosine (NECA; manufactured by Sigma corporation) was evaluated as affinity of the compound of the present invention to the A2B receptor. Thus, after washing adherent cells with 2 mL/well of a Krebs-Ringer buffer (containing 0.1 % BSA; pH7.4) twice, a pre-incubation was carried out at 0.5 mL/well for 30 minutes. After that, […] of a mixed solution containing NECA and the compound of the present invention were added in the presence of Ro-20-1724 (manufactured by RBI corporation) which is a phosphodiesterase inhibitor. 15 minutes after pre-incubation, the reaction was stopped by adding 0.1N HCl to the reaction solution. Measurement of cAMP was carried out using a cAMP enzyme immunoassay kit manufactured by Amersham corporation. Calculation of the inhibition rate of the compound of the present invention to the NECA-stimulated cAMP production was carried out by the following expression. […]

The target of experiment [2] is T2, Human adenosine A1 receptor (Homo sapiens, UniProt P30542).
T2 construct: expressed in transfected cells; host or cells: CHOK1 cells (membrane specimen)
T2 sequence (P30542 1-326): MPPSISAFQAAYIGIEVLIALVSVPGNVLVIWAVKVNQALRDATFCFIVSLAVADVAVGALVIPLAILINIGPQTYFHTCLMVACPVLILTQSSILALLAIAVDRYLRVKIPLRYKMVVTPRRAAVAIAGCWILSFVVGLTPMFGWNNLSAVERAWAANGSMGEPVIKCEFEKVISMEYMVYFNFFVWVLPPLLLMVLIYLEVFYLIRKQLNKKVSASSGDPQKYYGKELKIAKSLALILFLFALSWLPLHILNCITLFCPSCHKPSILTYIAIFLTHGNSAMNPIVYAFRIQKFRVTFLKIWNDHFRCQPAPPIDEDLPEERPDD
Kind of experiment: Adenosine A1 receptor binding experiment (3H-CCPA displacement, CHOK1 membrane specimen). As to conditions: calculated from IC50 by Cheng-Prusoff's expression; 3H-CCPA binding, membranes of CHOK1 cells over-expressing human A1, 30° C., 120 minutes; read-out: inhibition constant (Ki value). As to the method:
Human adenosine A1 receptor cDNA was subjected to an over-expression in CHOK1 cells and its membrane specimen was suspended in a 20 mM HEPES buffer (containing 10 mM MgCl2 and 100 mM NaCl; pH 7.4) to make the protein concentration of 66.7 μg/mL. To 0.45 mL of this membrane specimen suspension were added 0.025 mL of tritium-labeled 60 nM chlorocyclopentyl adenosine (^3H-CCPA, manufactured by NEN corporation) and 0.025 mL of a solution of the compound of the present invention. The mixture was allowed to stand at 30° C. for 120 minutes, subjected to a quick suction on a glass fiber filter (GF/B; manufactured by Whatman) and immediately washed with 5 mL of water-cooled 50 mM Tris-HCl buffer twice. After that, the glass fiber filter was transferred to a vial bottle, a scintillator was added, and the radioactivity on the filter was measured by a liquid scintillation counter. […]
At this point, total binding amount is a ^3H-CCPA binding radioactivity in the absence of the compound of the present invention, non-specific binding amount is a ^3H -CCPA binding radioactivity in the presence of 100 μM of RPIA ([R]-[1-methyl-2-phenylethyl]adenosine), and binding amount in the presence of the compound of the present invention is a ^3H-CCPA binding radioactivity in the presence of the compound of the present invention of various concentrations.

For the compound `Cn1cc(-c2c(O)nc(N)nc2-c2ccco2)ccc1=O` [the compound of the present invention, 5-[2-amino-4-(2-furyl)-6-hydroxypyrimidin-5-yl]-1-methylpyridin-2(1H)-one], the IC50 in experiment [1] stood at 72.7 nM. For the same compound, the Ki in experiment [2] is 157 nM.

In general, Ki refers to a measure of affinity in units of concentration, obtained from inhibition or displacement.
